This is an account of results in US11524966B1 (Valo Early Discovery, Inc., priority 2017, dated 2022).

The structures appear in SMILES notation. pIC50: −log10 of the molar value.

The experiment concerns the target T1, USP28 (His-tagged USP28-FL-mammalian) (Homo sapiens, UniProt Q96RU2).
T1 construct: Expression of USP28 (1-1077)-TEV-6*His (pTT5 vector); made in house; host or cells: Expi293f cells (pTT5 vector)
T1 sequence (Q96RU2 1-1077): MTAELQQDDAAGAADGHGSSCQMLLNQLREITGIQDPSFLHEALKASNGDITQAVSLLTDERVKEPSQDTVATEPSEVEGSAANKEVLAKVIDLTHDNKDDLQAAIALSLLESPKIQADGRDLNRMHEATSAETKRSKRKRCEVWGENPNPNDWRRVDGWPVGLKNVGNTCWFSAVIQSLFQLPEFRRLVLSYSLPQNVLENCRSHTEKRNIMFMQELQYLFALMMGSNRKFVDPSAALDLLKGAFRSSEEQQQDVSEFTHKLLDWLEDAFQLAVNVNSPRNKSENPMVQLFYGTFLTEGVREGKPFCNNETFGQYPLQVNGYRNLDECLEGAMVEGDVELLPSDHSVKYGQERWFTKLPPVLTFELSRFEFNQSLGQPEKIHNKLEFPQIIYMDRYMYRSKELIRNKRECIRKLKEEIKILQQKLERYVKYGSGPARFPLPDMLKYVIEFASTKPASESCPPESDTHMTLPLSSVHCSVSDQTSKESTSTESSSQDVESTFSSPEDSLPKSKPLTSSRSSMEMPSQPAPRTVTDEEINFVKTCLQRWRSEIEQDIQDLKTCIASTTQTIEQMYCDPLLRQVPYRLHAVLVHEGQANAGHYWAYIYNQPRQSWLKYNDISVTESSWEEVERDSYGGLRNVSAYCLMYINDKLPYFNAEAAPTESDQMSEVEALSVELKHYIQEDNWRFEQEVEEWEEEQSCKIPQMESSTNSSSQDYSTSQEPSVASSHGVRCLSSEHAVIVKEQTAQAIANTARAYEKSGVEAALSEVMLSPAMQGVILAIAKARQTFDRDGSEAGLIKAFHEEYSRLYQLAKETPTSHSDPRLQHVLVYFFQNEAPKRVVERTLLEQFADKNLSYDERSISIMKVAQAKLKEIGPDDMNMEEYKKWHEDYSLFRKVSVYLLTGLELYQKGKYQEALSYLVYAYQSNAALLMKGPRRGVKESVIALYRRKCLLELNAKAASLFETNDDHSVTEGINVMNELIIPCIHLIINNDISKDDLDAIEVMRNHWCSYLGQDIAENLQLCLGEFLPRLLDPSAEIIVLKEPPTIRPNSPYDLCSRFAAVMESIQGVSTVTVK
The experiment is described as follows: Ubiquitin-Rhodamine 110 Assay for USP28 Activity, Example A-1(a). The format is biochemical. The settings on record: Ubiquitin-Rhodamine 110 assay, Example A-1(a); read-out: USP28 A-1(a) IC50 range. The procedure, abridged:
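Full-length His-tagged human USP28 (1-1077, Expi293f-expressed), […], with 25 nM Ub-Rh110 (<<Km) in pH 8.0 Tris buffer with BME, BGG, Triton X-100. 10-point dilutions (25 μM-1.3 nM), 45 min at room temperature, citric acid stop, fluorescence 485/535 nm; IC50 by 4-parameter fit.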
One may read the pIC50 as the negative decadic logarithm of the IC50, by convention in mol/L. Consider `CO[C@H]1CN(c2cc(F)c3c(c2C#N)OC[C@H](NC(=O)c2sc4nc(C)cnc4c2N)C3)C[C@@H]1N` [Example 174, 7-amino-N-[(3R)-7-[(3S,4S)-3-amino-4-methoxypyrrolidin-1-yl]-8-cyano-5-fluoro-3,4-dihydro-2H-1-benzopyran-3-yl]-3-methylthieno[2,3-b]pyrazine-6-carboxamide], for which the pIC50 was 5.70 to 6.70.

Take `Cc1ccc2c(N)c(C(=O)N[C@H]3CCc4cc(N5CC6CCC(C5)N6)ccc4C3)oc2n1` [Example 171, 3-amino-N-[(2S)-6-{3,8-diazabicyclo[3.2.1]octan-3-yl]-1,2,3,4-tetrahydronaphthalen-2-yl]-6-methylfuro[2,3-b]pyridine-2-carboxamide]: the pIC50 is below 5.70.

As for `CO[C@H]1CCN(c2ccc3c(c2)OC[C@H](NC(=O)c2sc4nc(C)ccc4c2N)C3)C[C@@H]1N` [Example 119, 3-amino-N-[(3R)-7-[(3S,4S)-3-amino-4-methoxypiperidin-1-yl}-3,4-dihydro-2H-1-benzopyran-3-yl]-6-methylthieno[2,3-b]pyridine-2-carboxamide], the pIC50 is 6.70 to 7.30.

Regarding `CO[C@@H]1CN(c2ccc3c(c2)CC[C@H](NC(=O)c2sc4nc(C)ccc4c2N)C3)C[C@@H]1N` [Example 143, 3-amino-N-[(2S)-6-[(3S,4R)-3-amino-4-methoxypyrrolidin-1-yl]-1,2,3,4-tetrahydronaphthalen-2-yl]-6-methylthieno[2,3-b]pyridine-2-carboxamide], the pIC50 is 7.30 to 9.00.

For the compound `Cc1ccc2c(N)c(C(=O)N[C@H]3COc4c(F)c(N5C[C@H]6C[C@@H]5CN6)cc(F)c4C3)sc2n1` [Example 111, 3-amino-N-[(3R)-7-[(1R,4R)-2,5-diazabicyclo[2.2.1]heptan-2-yl]-5,8-difluoro-3,4-dihydro-2H-1-benzopyran-3-yl]-6-methylthieno[2,3-b]pyridine-2-carboxamide], the pIC50 is 7.30 to 9.00.

With `Cc1ccc2c(N)c(C(=O)N[C@H]3COc4cc(N5C[C@@H]6OCCN[C@@H]6C5)ccc4C3)sc2n1` [Example 154, N-[(3R)-7-[(4aR,7aS)-octahydropyrrolo[3,4-b]morpholin-6-yl]-3,4-dihydro-2H-1-benzopyran-3-yl]-3-amino-6-methylthieno[2,3-b]pyridine-2-carboxamide], the pIC50 was 6.70 to 7.30.

On to `CO[C@H]1CN(c2cc3c(cc2C#N)C[C@@H](NC(=O)c2sc4nc(C)cnc4c2N)CO3)C[C@@H]1N` [Example 176, 7-amino-N-[(3R)-7-[(3S,4S)-3-amino-4-methoxypyrrolidin-1-yl]-6-cyano-3,4-dihydro-2H-1-benzopyran-3-yl]-3-methylthieno[2,3-b]pyrazine-6-carboxamide], for which the pIC50 is 7.30 to 9.00.

Regarding `COC[C@@H]1CN(c2ccc3c(c2)OC[C@H](NC(=O)c2sc4nc(C)ccc4c2N)C3)C[C@@H]1N` [Example 161, 3-amino-N-[(3R)-7-[(3R,4R)-3-amino-4(methoxymethyl)pyrrolidin-1-yl]-3,4-dihydro-2H-1-benzopyran-3-yl]-6-methylthieno[2,3-b]pyridine-2-carboxamide], the pIC50 is 7.30 to 9.00.

For the compound `CCO[C@H]1CN(c2ccc3c(n2)CC[C@H](NC(=O)c2sc4nc(C)ccc4c2N)C3)C[C@@H]1N` [Example 142, 3-amino-N-[(6S)-2-[(3S,4S)-3-amino-4-ethoxypyrrolidin-1-yl]-5,6,7,8-tetrahydroquinolin-6-yl]-6-methylthieno[2,3-b]pyridine-2-carboxamide], the pIC50 is 5.70 to 6.70.

As for `COC[C@@H]1CNCCN1c1ccc2c(c1)OC[C@H](NC(=O)c1sc3nc(C)ccc3c1N)C2` [Example 155, 3-amino-N-[(3R)-7-[(2S)-2-(methoxymethyl)piperazin-1-yl]-3,4-dihydro-2H-1-benzopyran-3-yl]-6-methylthieno[2,3-b]pyridine-2-carboxamide], the pIC50 is 7.30 to 9.00.

On to `CCn1ccc2cc(C(=O)N[C@H]3CCc4cc(N5C[C@H](OC)[C@@H](N)C5)cc(F)c4C3)nnc21` [Example 138, N-[(2S)-6-[(3S,4S)-3-amino-4-methoxypyrrolidin-1-yl]-8-fluoro-1,2,3,4-tetrahydronaphthalen-2-yl]-7-ethyl-7H-pyrrolo[2,3-c]pyridazine-3-carboxamide], for which the pIC50 is below 5.70.

Turning to `Cc1nc2sc(C(=O)N[C@H]3COc4c(F)c(N5CC6CCC(C5)N6)cc(F)c4C3)c(N)c2s1` [Example 98, 6-amino-N-[(3R)-7-{3,8-diazabicyclo[3.2.1]octan-3-yl}-5,8-difluoro-3,4-dihydro-2H-1-benzopyran-3-yl]-2-methylthieno[2,3-d][1, 3]thiazole-5-carboxamide], the pIC50 was 7.30 to 9.00.

Turning to `COC[C@H]1CN(c2ccc3c(c2)OC[C@H](NC(=O)c2sc4nc(C)ccc4c2N)C3)C[C@@H]1N` [Example 164, 3-amino-N-[(3R)-7-[(3R,4S)-3-amino-4-(methoxymethyl)pyrrolidin-1-yl]-3,4-dihydro-2H-1-benzopyran-3-yl]-6-methylthieno[2,3-b]pyridine-2-carboxamide], the pIC50 is 7.30 to 9.00.

Take `Cc1ccc2c(N)c(C(=O)N[C@H]3CCc4cc(N5CC6CNCC(C5)O6)c(F)cc4C3)sc2n1` [Example 101, 3-amino-N-[(2S)-7-fluoro-6-{9-oxa-3,7-diazabicyclo[3.3.1]nonan-3-yl}-1,2,3,4-tetrahydronaphthalen-2-yl]-6-methylthieno[2,3-b]pyridine-2-carboxamide]: the pIC50 is 7.30 to 9.00.

Take `CO[C@H]1CN(c2cc(F)c3c(c2C#N)OC[C@H](NC(=O)c2sc4nc(C)ccc4c2N)C3)C[C@@H]1N` [Example 175, 3-amino-N-[(3R)-7-[(3S,4S)-3-amino-4-methoxypyrrolidin-1-yl]-8-cyano-5-fluoro-3,4-dihydro-2H-1-benzopyran-3-yl]-6-methylthieno[2,3-b]pyridine-2-carboxamide]: the pIC50 was 6.70 to 7.30.

Turning to `Cc1ccc2c(N)c(C(=O)N[C@@H]3CCc4c(ccc(N5CC6CNCC(C5)O6)c4F)C3)sc2n1` [Example 100, 3-amino-N-[(2R)-5-fluoro-6-{9-oxa-3,7-diazabicyclo[3.3.1]nonan-3-yl}-1,2,3,4-tetrahydronaphthalen-2-yl]-6-methylthieno[2,3-b]pyridine-2-carboxamide], the pIC50 was 6.70 to 7.30.

Turning to `CCn1ccc2cc(C(=O)N[C@H]3CCc4cc(N5C[C@H](OC)[C@@H](N)C5)ccc4C3)cnc21` [Example 132, N-[(2S)-6-[(3S,4S)-3-amino-4-methoxypyrrolidin-1-yl]-1,2,3,4-tetrahydronaphthalen-2-yl]-1-ethyl-1H-pyrrolo[2,3-b]pyridine-5-carboxamide], the pIC50 is 5.70 to 6.70.

As for `Cc1cc(C)c2c(N)c(C(=O)N[C@@H]3COc4cc(N5CCNCC5)c(F)c(F)c4C3)sc2n1` [Example 160, 3-amino-N-[(3S)-5,6-difluoro-7-(piperazin-1-yl)-3,4-dihydro-2H-1-benzopyran-3-yl]-4,6-dimethylthieno[2,3-b]pyridine-2-carboxamide], the negative-log IC50 (pIC50) is 7.30 to 9.00.

Take `Cc1ccc2c(N)c(C(=O)N[C@H]3COc4c(C#N)c(N5CC6CCC(C5)N6)cc(F)c4C3)sc2n1` [Example 95, 3-amino-N-[(3R)-8-cyano-7-{3,8-diazabicyclo[3.2.1]octan-3-yl}-5-fluoro-3,4-dihydro-2H-1-benzopyran-3-yl]-6-methylthieno[2,3-b]pyridine-2-carboxamide]: the pIC50 is 7.30 to 9.00.

With `CCn1ccc2cc(C(=O)N[C@H]3CCc4cc(N5C[C@H](OC)[C@@H](N)C5)ccc4C3)nnc21` [Example 131, N-[(2S)-6-[(3S,4S)-3-amino-4-methoxypyrrolidin-1-yl]-1,2,3,4-tetrahydronaphthalen-2-yl]-7-ethyl-7H-pyrrolo[2,3-c]pyridazine-3-carboxamide], the pIC50 is below 5.70.

Turning to `Cc1ccc2c(N)c(C(=O)N[C@H]3COc4c(C#N)c(N5CC6CNCC(C5)O6)cc(F)c4C3)sc2n1` [Example 96, 3-amino-N-[(3R)-8-cyano-5-fluoro-7-{9-oxa-3,7-diazabicyclo[3.3.1]nonan-3-yl}-3,4-dihydro-2H-1-benzopyran-3-yl]-6-methylthieno[2,3-b]pyridine-2-carboxamide], the pIC50 was 7.30 to 9.00.
